Laboratory results from patent US8703938B2, “Hepatitis C virus inhibitors” (Enanta Pharmaceuticals, Inc., priority 2009, dated 2014).

Test system: HCV 1b genotype replicon
Experiment: HCV genotype-1b replicon assay (qRT-PCR or luciferase)
Type: cell-based
Settings: Hepatitis C virus, read-out: Genotype-1b replicon EC50 Range
Excerpt: HCV replicon cell lines (kindly provided by R. Bartenschlager) isolated from colonies as described by Lohman et. al. (Lohman et al. (1999) Science 285: 110-113, expressly incorporated by reference in its entirety) and used for all experiments. The HCV replicon has the nucleic acid sequence set forth in EMBL Accession No.: AJ242651, the coding sequence of which is from nucleotides 1801 to 8406.
The coding sequence of the published HCV replicon was synthesized and subsequently assembled in a modified plasmid pBR322 (Promega, Madison, Wis.) using standard molecular biology techniques. […]
EC50 values of single agent compounds and combinations were determined by HCV RNA detection using quantitative RT-PCR, according to the manufacturer's instructions, with a TAQMAN® One-Step RT-PCR Master Mix Reagents Kit (Cat # AB 4309169, Applied Biosystems) on an ABI Model 7500 thermocycler. The TaqMan primers used for detecting and quantifying HCV RNA were obtained from Integrated DNA Technologies. HCV RNA was normalized to GAPDH RNA levels in drug-treated cells, which was detected and quantified using the Human GAPDH Endogenous Control Mix (Applied Biosystems, AB 4310884E). […] Chemical agent cytotoxicity was evaluated using an MTS assay according to the manufacturer's directions (Promega). […]

Compound: COC(=O)N[C@H](C(=O)N1CCC(C(=O)Nc2ccc(-c3ccc(NC(=O)C4CCN(C(=O)[C@@H](NC(=O)OC)C(C)C)C4)cc3)cc2)C1)C(C)C (stereo partly shown) [Example 295]
- EC50: > 10 nM
